Results from ChEMBL document CHEMBL5154663, “Biotinylated curcumin as a novel chemosensitizer enhances naphthalimide-induced autophagic cell death in breast cancer cells” (Eur J Med Chem, 2022).
The source made the active and inactive calls. The rule behind the calls is not given here.

Assays:
[1] = Toxicity in BALB/c nude mouse xenografted with human MCF7 cells assessed as effect on body weight at 5 mg/kg, ip administered once daily for 15 days in presence of light irradiation; format: organism-based; details: in vivo, 360 h, time 15 day
MCF7 [2] = assay: Antiproliferative activity against human MCF7 cells assessed as cell viability in light irradiation and measured after 48 hrs by MTT assay; format: functional, cell-based; details: MCF7, light or radiation study
MCF7 [3] = assay: Induction of ROS generation in human MCF7 cells assessed as increase in ROS level at 5 uM for 10 mins by DCFH-DA staining-based flow cytometry; format: functional
MCF7 [4] = assay: Induction of cell membrane permeability in human MCF7 cells at 5 uM in presence of light irradiation by confocal microscopy analysis; format: functional
B16-F10 [5] = assay: Antiproliferative activity against mouse B16-F10 cells assessed as cell viability in light irradiation and measured for 48 hrs by MTT assay; format: functional, cell-based; details: B16-F10, light or radiation study
B16-F10 [6] = assay: Antiproliferative activity against mouse B16-F10 cells assessed as cell viability in dark incubated for 48 hrs by MTT assay; format: functional, cell-based; details: B16-F10, 48 h
MCF7 [7] = assay: Antiproliferative activity against human MCF7 cells assessed as cell viability in dark incubated for 48 hrs by MTT assay; format: functional, cell-based; details: MCF7, 48 h
MCF7 [8] = assay: Potentiation of MCLOP induced autophagy in human MCF7 cells assessed as increase in […] protein ratio level at 5 uM and measured after 24 hrs by western blot analysis; format: functional, cell-based
MCF7 [9] = assay: Potentiation of MCLOP induced cell membrane permeability in human MCF7 cells at 5 uM in dark by confocal microscopy analysis; format: functional
MCF7 [10] = assay: Potentiation of MCLOP induced increase in HClO level in human MCF7 cells by fluorescence method; format: functional
[11] = Toxicity in BALB/c nude mouse xenografted with human MCF cells assessed as MCLOP induced morphological changes in heart at 5 mg/kg, ip administered once daily for 15 days by H and E staining based analysis; format: organism-based; details: in vivo, 360 h, time 15 day
MCF7 [12] = assay: Potentiation of MCLOP induced autophagy in human MCF7 cells assessed as induction of autophagosomes formation by measuring increase LC3 puncta at 5 uM measured after 24 hrs by confocal microscopic analysis; format: functional, cell-based
MCF7 [13] = assay: Potentiation of MCLOP induced antitumor activity against human MCF7 cells xenografted in Balb/c nude mouse assessed as tumor growth inhibition at 5 mg/kg, ip administered once daily for 15 days in presence of light irradiation; format: functional, organism-based; details: time 15.0 day
[14] = Effect on HClO level in human MCF7 cells by fluorescence method; format: functional
[15] = Toxicity in BALB/c nude mouse xenografted with human MCF cells assessed as MCLOP induced morphological changes in spleen at 5 mg/kg, ip administered once daily for 15 days by H and E staining based analysis; format: organism-based; details: in vivo, 360 h, time 15 day
[16] = Toxicity in BALB/c nude mouse xenografted with human MCF cells assessed as MCLOP induced morphological changes in kidney at 5 mg/kg, ip administered once daily for 15 days by H and E staining based analysis; format: organism-based; details: in vivo, 360 h, time 15 day
MCF7 [17] = assay: Potentiation of MCLOP induced ROS generation in human MCF7 cells assessed as increase in ROS level at 5 uM for 10 mins by DCFH-DA staining-based flow cytometry; format: functional
MCF7 [18] = assay: Potentiation of MCLOP induced cell membrane permeability in human MCF7 cells at 5 uM in presence of light irradiation by confocal microscopy analysis; format: functional
[19] = Toxicity in BALB/c nude mouse xenografted with human MCF cells assessed as MCLOP induced morphological changes in liver at 5 mg/kg, ip administered once daily for 15 days by H and E staining based analysis; format: organism-based; details: in vivo, 360 h, time 15 day
[20] = Toxicity in BALB/c nude mouse xenografted with human MCF cells assessed as MCLOP induced morphological changes in lung at 5 mg/kg, ip administered once daily for 15 days by H and E staining based analysis; format: organism-based; details: in vivo, 360 h, time 15 day
[21] = Octanol-water partition coefficient, logP of the compound; format: physicochemical
MCF7 [22] = assay: Potentiation of MCLOP induced autophagy in human MCF7 cells assessed as decrease in p62 protein level at 5 uM measured after 24 hrs by western blot analysis; format: functional, cell-based
MCF7 [23] = assay: Cytotoxicity against human MCF7 cells assessed as cell viability at 10 uM incubated for 48 hrs by MTT assay; format: toxicity, cell-based; details: mcf7, 48 h
MCF7 [24] = assay: Potentiation of MCLOP induced antiproliferative activity against human MCF7 cells assessed as cell survial rate in presence of light irradiation at 10 uM and measured after 48 hrs by MTT assay; format: functional

CN(C)c1ccc2c(c1)Sc1cc(N(C)C)ccc1N2C(=O)NCCN1C(=O)c2cccc3cc([N+](=O)[O-])cc(c23)C1=O
Activity [1]: Non-Toxic | IC50 (MCF7 [2]): 12.7 µM | fold change (FC) (MCF7 [3]): 3.1 | fold change (FC) (MCF7 [4]): 4.1 | IC50 (B16-F10 [5]): 30.8 µM | IC50 (B16-F10 [6]): > 40 µM | IC50 (MCF7 [7]): > 40 µM

COc1cc(/C=C/C(=O)CC(=O)/C=C/c2ccc(OC(=O)CCCC[C@@H]3SC[C@@H]4NC(=O)N[C@@H]43)c(OC)c2)ccc1O
Activity (MCF7 [8]): Active | fold change (FC) (MCF7 [9]): 3 | Activity [1]: Non-Toxic | fold change (FC) (MCF7 [10]): 2.2 | Activity [11]: Non-Toxic | Activity (MCF7 [3]; DDE = dose-dependent effect): Dde | Activity (MCF7 [12]): Active | Activity (MCF7 [13]): Active | fold change (FC) [14]: 2.3 | Activity [15]: Non-Toxic | Activity [16]: Non-Toxic | fold change (FC) (MCF7 [17]): 5.6 | fold change (FC) (MCF7 [18]): 5.3 | Activity [19]: Non-Toxic | Activity [20]: Non-Toxic | logP [21]: 0.91 | Activity (MCF7 [22]): Active

COc1cc(/C=C/C(=O)CC(=O)/C=C/c2ccc(O)c(OC)c2)ccc1O [CURCUMIN]
Activity (MCF7 [23]): Non-Toxic | Activity (MCF7 [24]): 20% | logP [21]: 2.04

CN(C)c1ccc2nc3ccc(N(C)C)cc3[s+]c2c1 [METHYLENE BLUE ANHYDROUS]
IC50 (MCF7 [2]): 10.6 µM | IC50 (B16-F10 [5]): 5.48 µM | IC50 (B16-F10 [6]): 7.02 µM | IC50 (MCF7 [7]): 14.6 µM
